Experiments:
[1] = Cmax in Sprague-Dawley rat at 5 mg/kg, iv after 24 hrs by LC/MS/MS analysis; format: ADME, organism-based; parameters: dose 5 mg/kg, route intravenous; details: in vivo
[2] = Cytotoxicity against human Huh7ET cells assessed as lactate dehydrogenase release up to 5 uM after 72 hrs; format: cell-based; details: huh-7, 72 h
[3] = Cytotoxicity against human Huh7ET cells assessed as lactate dehydrogenase release after 72 hrs; format: cell-based, Huh-7
[4] = AUC (0 to infinity) in Sprague-Dawley rat at 5 mg/kg, po after 24 hrs by LC/MS/MS analysis; format: ADME, organism-based; parameters: time infinity, dose 5 mg/kg, route oral; details: plasma
[5] = Apparent volume of distribution in monkey at 1.4 mg/kg, iv after 24 hrs by LC/MS/MS analysis; format: ADME, organism-based, Macaca mulatta; parameters: dose 1.4 mg/kg, route intravenous; details: rhesus monkey, in vivo, read-out: Vz
[6] = Oral bioavailability in monkey at 15 mg/kg after 24 hrs by LC/MS/MS analysis; format: ADME, organism-based, Macaca mulatta; details: rhesus monkey, in vivo
[7] = Systemic clearance in Sprague-Dawley rat at 2 mg/kg, iv after 24 hrs by LC/MS/MS analysis; format: ADME, organism-based; parameters: dose 2 mg/kg, route intravenous; details: in vivo

Cmax [1]: 2990 ng/mL | AUC(0-inf) [4]: 13000 ng·h/mL | Vd [5]: 1.69 L/kg | bioavailability [6]: 11.1% | clearance [7]: 1.48 mL/min/kg
Structure (SMILES): C/C=C/C[C@@H](C)[C@@H](O)[C@H]1C(=O)N[C@@H](CC)C(=O)N(C)C(SCCN(C)C)C(=O)N(C)[C@@H](CC(C)(C)O)C(=O)N[C@@H](C(C)C)C(=O)N(C)[C@@H](CC(C)C)C(=O)N[C@@H](C)C(=O)N[C@H](C)C(=O)N(C)[C@@H](CC(C)C)C(=O)N(C)[C@@H](CC(C)C)C(=O)N(C)[C@@H](C(C)C)C(=O)N1C (single isomer, unassigned) [SCY 635]
Activity [2]: Non-toxic | CC50 at 72 h [3]: 14.2 µM
